# Measured values from patent US20260224582A1, “Heterobicyclic amides as inhibitors of CD38” (Cerevance, Inc., priority 2022, published 2026).
# Target: T1, Recombinant mouse CD38 (Mus musculus, UniProt P56528)
# T1 sequence (P56528 1-304): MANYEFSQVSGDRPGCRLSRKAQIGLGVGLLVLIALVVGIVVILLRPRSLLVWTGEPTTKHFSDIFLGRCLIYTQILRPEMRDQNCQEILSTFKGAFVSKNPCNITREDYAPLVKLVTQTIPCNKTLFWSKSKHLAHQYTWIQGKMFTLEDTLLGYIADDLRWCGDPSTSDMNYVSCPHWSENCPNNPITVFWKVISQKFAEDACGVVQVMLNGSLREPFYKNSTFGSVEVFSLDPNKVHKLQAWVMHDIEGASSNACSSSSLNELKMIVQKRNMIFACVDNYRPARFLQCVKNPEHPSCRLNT
# Assay: Mouse CD38 hydrolase assay (fluorescence-based, ε-NAD substrate)
# Assay type: biochemical
# Settings: recombinant mouse CD38 0.4 nM, 12 μM ε-NAD, 30 min preincubation at 25° C.
# In short: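 Recombinant mouse CD38 (0.4 nM) preincubated with compound 30 min at 25° C in PBS without Ca/Mg, 0.005% BSA, pH 7.4, then 12 μM ε-NAD added. Fluorescence (ex 300/em 410 nm) read at 0 and 6 min, difference used. IC50 from 10-point half-log curve, four-parameter fit, normalised to tool-inhibitor low control.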
row,Compound,IC50 [nM]
1,"O=C(N[C@H]1CC[C@H](N2CC[C@@H](F)C2)CC1)c1nc(-n2ccnc2)nn2cccc12 [Example 14, N-((1R,4r)-4-((R)-3-fluoropyrrolidin-1-yl)cyclohexyl)-2-(1H-imidazol-1-yl)pyrrolo[2,1-f][1,2,4]triazine-4-carboxamide]",≤ 40
2,"O=C(N[C@H]1CC[C@H](NCC(F)(F)F)CC1)c1nc(-n2ccnc2)nn2cccc12 [Example 29, 2-(1H-imidazol-1-yl)-N-((1r,4r)-4-((2,2,2-trifluoroethyl)amino)cyclohexyl)pyrrolo[2,1-f][1,2,4]triazine-4-carboxamide]",≤ 40
3,"O=C(N[C@H]1CC[C@H](NCC(F)(F)F)CC1)c1cn2ncnc2c(-n2ccnc2)n1 [Example 20, 8-(1H-imidazol-1-yl)-N-((1r,4r)-4-((2,2,2-trifluoroethyl)amino)cyclohexyl)-[1,2,4]triazolo[1,5-a]pyrazine-6-carboxamide]",≤ 40
4,"O=C(N[C@H]1CC[C@H](NCC(F)(F)F)CC1)c1nc(-n2ccnc2)nc2ncccc12 [Example 4, 2-(1H-imidazol-1-yl)-N-((1r,4r)-4-((2,2,2-trifluoroethyl)amino)cyclohexyl)pyrido[2,3-d]pyrimidine-4-carboxamide]",≤ 40
5,"O=C(N[C@H]1CC[C@H](NCC(F)(F)F)CC1)c1cn2ccnc2c(-n2ccnc2)n1 [Example 19, 8-(1H-imidazol-1-yl)-N-((1r,4r)-4-((2,2,2-trifluoroethyl)amino)cyclohexyl) imidazo[1,2-a]pyrazine-6-carboxamide]",≤ 40
6,"O=C(N[C@H]1CC[C@H](N2CCC(F)(F)C2)CC1)c1cn2ncnc2c(-n2ccnc2)n1 [Example 48, N-((1r,4r)-4-(3,3-difluoropyrrolidin-1-yl)cyclohexyl)-8-(1H-imidazol-1-yl)-[1,2,4]triazolo[1,5-a]pyrazine-6-carboxamide]",≤ 40
7,"O=C(N[C@H]1CC[C@H](N2CCC(F)(F)C2)CC1)c1nc(-n2ccnc2)nn2cccc12 [Example 12, N-((1r,4r)-4-(3,3-difluoropyrrolidin-1-yl)cyclohexyl)-2-(1H-imidazol-1-yl)pyrrolo[2,1-f][1,2,4]triazine-4-carboxamide]",≤ 40
8,"O=C(N[C@H]1CC[C@H](N2CCC(F)(F)C2)CC1)c1cn2ccnc2c(-n2ccnc2)n1 [Example 41, N-((1r,4r)-4-(3,3-difluoropyrrolidin-1-yl)cyclohexyl)-8-(1H-imidazol-1-yl) imidazo[1,2-a]pyrazine-6-carboxamide]",≤ 40
9,"O=C(N[C@H]1CC[C@H](N2CC[C@H](F)C2)CC1)c1nc(-n2ccnc2)nn2cccc12 [Example 13, N-((1S,4r)-4-((S)-3-fluoropyrrolidin-1-yl)cyclohexyl)-2-(1H-imidazol-1-yl)pyrrolo[2,1-f][1,2,4]triazine-4-carboxamide]",≤ 40
10,"O=C(N[C@H]1CC[C@H](NCC(F)(F)F)CC1)c1cn2nccc2c(-n2ccnc2)n1 [Example 21, 4-(1H-imidazol-1-yl)-N-((1r,4r)-4-((2,2,2-trifluoroethyl)amino)cyclohexyl)pyrazolo[1,5-a]pyrazine-6-carboxamide]",≤ 40
11,"O=C(N[C@H]1CC[C@H](N2CC(F)(F)C2)CC1)c1cn2ncnc2c(-n2ccnc2)n1 [Example 45, N-((1r,4r)-4-(3,3-difluoroazetidin-1-yl)cyclohexyl)-8-(1H-imidazol-1-yl)-[1,2,4]triazolo[1,5-a]pyrazine-6-carboxamide]",≤ 40
